The source of these data is patent publication US20250333406A1, “SULFONYL CYCLIC DERIVATIVES, AND COMPOSITIONS AND METHODS THEREOF” (Lysoway Therapeutics, Inc., priority 2023, published 2025).

For one experiment, the system named is TFEB. Kind of experiment: TFEB Nuclear Translocation Assay. The class given is cell-based. As to conditions: read-out: EC50 of TFEB activation.
The target of the next experiment is T1, ML1-4A (Homo sapiens, UniProt Q9GZU1, L15A/L16A).
T1 construct: host or cells: HEK293 (stably or transiently transfected)
As to conditions: HEK293 cells stably or transiently expressing ML1-4A; cited from earlier work.

For a further experiment, the system named is TRPML1. As to conditions: cited from earlier work.
Another experiment has as its target T2, TRPML2 (Homo sapiens, UniProt Q8IZK6).
T2 sequence (Q8IZK6 1-566): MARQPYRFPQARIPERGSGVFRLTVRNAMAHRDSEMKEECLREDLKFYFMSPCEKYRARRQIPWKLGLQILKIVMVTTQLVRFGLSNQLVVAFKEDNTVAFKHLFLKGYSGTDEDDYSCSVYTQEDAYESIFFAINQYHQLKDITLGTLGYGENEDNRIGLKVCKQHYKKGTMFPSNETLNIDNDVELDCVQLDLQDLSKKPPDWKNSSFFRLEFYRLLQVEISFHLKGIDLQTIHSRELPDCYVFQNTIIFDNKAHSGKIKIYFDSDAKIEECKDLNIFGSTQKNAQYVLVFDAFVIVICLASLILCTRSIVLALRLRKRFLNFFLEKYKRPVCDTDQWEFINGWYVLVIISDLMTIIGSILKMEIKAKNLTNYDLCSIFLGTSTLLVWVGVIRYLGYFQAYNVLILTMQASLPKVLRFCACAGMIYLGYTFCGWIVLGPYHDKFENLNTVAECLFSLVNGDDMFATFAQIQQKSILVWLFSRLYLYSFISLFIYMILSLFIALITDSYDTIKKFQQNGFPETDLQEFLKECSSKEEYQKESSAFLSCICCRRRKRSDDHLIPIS
As to conditions: cited from earlier work.

For another experiment, the target named is T3, TRPML3 (Homo sapiens, UniProt Q8TDD5).
T3 sequence (Q8TDD5 1-553): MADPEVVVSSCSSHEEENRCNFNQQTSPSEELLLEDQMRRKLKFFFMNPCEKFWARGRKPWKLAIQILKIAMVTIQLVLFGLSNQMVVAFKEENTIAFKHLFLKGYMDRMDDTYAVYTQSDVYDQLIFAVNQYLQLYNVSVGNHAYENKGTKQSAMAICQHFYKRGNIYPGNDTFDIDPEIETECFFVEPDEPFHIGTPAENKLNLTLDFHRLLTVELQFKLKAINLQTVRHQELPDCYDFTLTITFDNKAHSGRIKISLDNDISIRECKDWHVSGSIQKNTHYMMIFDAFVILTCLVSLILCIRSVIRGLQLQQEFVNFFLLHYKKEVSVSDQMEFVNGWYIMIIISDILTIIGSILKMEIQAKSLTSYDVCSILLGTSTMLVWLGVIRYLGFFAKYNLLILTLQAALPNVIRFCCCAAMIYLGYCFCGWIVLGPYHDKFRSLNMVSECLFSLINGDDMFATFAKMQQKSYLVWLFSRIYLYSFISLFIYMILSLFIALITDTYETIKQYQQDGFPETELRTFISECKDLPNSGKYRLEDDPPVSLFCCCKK
As to conditions: cited from earlier work.

Experiment [1] deals with T4, TRPML-like current (IML-L) (Homo sapiens, UniProt Q9GZU1).
T4 construct: endogenous in cells; host or cells: human fibroblasts (WT ML1+/+; ML4 ML1-/- as negative control)
As to conditions: wild-type (WT; ML1+/+) human fibroblasts; cited from earlier work.

For experiment [2], the system named is TRPML-like current (IML-L). As to conditions: ML4 (ML1−/−) human fibroblasts; cited from earlier work.
In another experiment the test system is TRPMLs. As to conditions: cited from earlier work.

T1 sequence (Q9GZU1 with tags, fused parts or gaps L15A/L16A limits assumed): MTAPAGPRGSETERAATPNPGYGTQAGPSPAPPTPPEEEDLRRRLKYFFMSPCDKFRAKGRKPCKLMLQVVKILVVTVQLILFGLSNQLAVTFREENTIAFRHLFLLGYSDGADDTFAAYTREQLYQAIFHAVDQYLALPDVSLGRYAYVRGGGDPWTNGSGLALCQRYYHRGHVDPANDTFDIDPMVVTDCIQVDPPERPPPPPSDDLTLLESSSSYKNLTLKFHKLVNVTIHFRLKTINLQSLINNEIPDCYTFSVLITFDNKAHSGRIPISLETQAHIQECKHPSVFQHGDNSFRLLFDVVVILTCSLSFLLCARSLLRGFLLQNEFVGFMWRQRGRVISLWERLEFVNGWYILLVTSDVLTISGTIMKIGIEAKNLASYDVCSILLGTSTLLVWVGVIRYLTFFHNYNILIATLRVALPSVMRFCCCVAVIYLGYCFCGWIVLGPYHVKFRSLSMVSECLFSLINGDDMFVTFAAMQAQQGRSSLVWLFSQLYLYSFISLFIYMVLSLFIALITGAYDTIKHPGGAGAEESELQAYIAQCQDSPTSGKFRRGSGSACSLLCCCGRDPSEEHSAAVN
T4 sequence (Q9GZU1 whole entry): as the sequence (Q9GZU1 with tags, fused parts or gaps L15A/L16A limits assumed) above, with A15L, A16L, A577L, A578L counted along it

`CC(C)S(=O)(=O)n1ccc(S(=O)(=O)n2nc(N3CCN(S(C)(=O)=O)CC34CC4)c3c(Cl)cc(F)cc32)c1` [Compound 183, 4-chloro-6-fluoro-1-((1-(isopropylsulfonyl)-1H-pyrrol-3-yl)sulfonyl)-3-(7-(methylsulfonyl)-4,7-diazaspiro [2.5]octan-4-yl)-1H-indazole]: the EC50 (commonly the concentration at which the effect is half-maximal) with TFEB fell in the range of 1 to 10 µM.

On to `CC(C)S(=O)(=O)n1ccc(S(=O)(=O)n2nc(N3CCCC3C(F)(F)F)c3c(Cl)cc(F)cc32)c1` (centres unmarked) [Compound 184, 4-chloro-6-fluoro-1-(1-isopropylsulfonylpyrrol-3-yl)sulfonyl-3-[2-(trifluoromethyl)pyrrolidin-1-yl]indazole], for which, in the experiment on TFEB, the EC50 was ≤ 1 µM.

As for `CC(C)S(=O)(=O)n1ccc(S(=O)(=O)n2nc(N3CCN(c4ncc(F)cn4)CC3(C)C)c3c(Cl)cc(F)cc32)c1` [Compound 185, 4-chloro-6-fluoro-3-[4-(5-fluoropyrimidin-2-yl)-2,2-dimethyl-piperazin-1-yl]-1-(1-isopropylsulfonylpyrrol-3-yl) sulfonyl-indazole], in the experiment with TFEB, the EC50 is ≤ 1 µM.

Take `CC(C)S(=O)(=O)n1ccc(S(=O)(=O)n2nc(N3CCC(N(C)C)CC34CC4)c3c(Cl)cc(F)cc32)c1` (centres unmarked) [Compound 186, 4-[4-chloro-6-fluoro-1-(1-isopropylsulfonylpyrrol-3-yl)sulfonyl-indazol-3-yl]-N, N-dimethyl-4-azaspiro [2.5]octan-7-amine]: the EC50 in the experiment with TFEB was in the range of 1 to 10 µM.

`CC(C)S(=O)(=O)n1ccc(S(=O)(=O)n2nc(N3CCC(=O)CC34CC4)c3c(Cl)cc(F)cc32)c1` [Compound 187, 4-[4-chloro-6-fluoro-1-(1-isopropylsulfonylpyrrol-3-yl)sulfonyl-indazol-3-yl]-4-azaspiro [2.5]octan-7-one]: the EC50 with TFEB was ≤ 1 µM.

For the compound `CC(C)S(=O)(=O)n1ccc(S(=O)(=O)n2nc(N3CCCC34CC4)c3c(Cl)cc(F)cc32)c1` [Compound 188, 3-(4-azaspiro [2.4]heptan-4-yl)-4-chloro-6-fluoro-1-(1-isopropylsulfonylpyrrol-3-yl) sulfonyl-indazole], the EC50 in the experiment on TFEB was ≤ 1 µM.

As to `CC(C)S(=O)(=O)n1ccc(S(=O)(=O)n2nc(N3CCC34CCC4)c3c(Cl)cc(F)cc32)c1` [Compound 189, 3-(1-azaspiro [3.3]heptan-1-yl)-4-chloro-6-fluoro-1-(1-isopropylsulfonylpyrrol-3-yl) sulfonyl-indazole], the EC50 with TFEB is ≤ 1 µM.

Turning to `CC(C)S(=O)(=O)n1ccc(S(=O)(=O)n2nc(N3CCOCC34CC4)c3c(Cl)cc(F)cc32)c1` [Compound 190, 4-[4-chloro-6-fluoro-1-(1-isopropylsulfonylpyrrol-3-yl)sulfonyl-indazol-3-yl]-7-oxa-4-azaspiro [2.5]octane], the EC50 in the experiment on TFEB is ≤ 1 µM.

As for `CC(C)S(=O)(=O)n1ccc(S(=O)(=O)n2nc(N3CCC(F)(F)CC34CC4)c3c(Cl)cc(F)cc32)c1` [Compound 191, 4-chloro-3-(7,7-difluoro-4-azaspiro [2.5]octan-4-yl)-6-fluoro-1-(1-isopropylsulfonylpyrrol-3-yl) sulfonyl-indazole], the EC50 in the experiment on TFEB is ≤ 1 µM.

`CC(C)S(=O)(=O)n1ccc(S(=O)(=O)n2nc(N3CCC(F)CC34CC4)c3c(Cl)cc(F)cc32)c1` (centres unmarked) [Compound 192, 4-chloro-6-fluoro-3-(7-fluoro-4-azaspiro [2.5]octan-4-yl)-1-(1-isopropylsulfonylpyrrol-3-yl) sulfonyl-indazole]: the EC50 with TFEB is ≤ 1 µM.

For `CC(C)S(=O)(=O)c1nc(S(=O)(=O)n2nc(N3CCN(c4ncc(Cl)cc4F)CC34CC4)c3c(F)ccc(F)c32)cs1` [Compound 193, 4-[3-[7-(5-chloro-3-fluoro-2-pyridyl)-4,7-diazaspiro [2.5]octan-4-yl]-4,7-difluoro-indazol-1-yl]sulfonyl-2-isopropylsulfonyl-thiazole], in the experiment on TFEB, the EC50 was in the range of 1 to 10 µM.

Take `CC(C)S(=O)(=O)c1nc(S(=O)(=O)n2nc(N3CCN(c4ncc(F)cc4F)CC34CC4)c3c(F)ccc(F)c32)cs1` [Compound 194, 4-[3-[7-(3,5-difluoro-2-pyridyl)-4,7-diazaspiro [2.5]octan-4-yl]-4,7-difluoro-indazol-1-yl]sulfonyl-2-isopropylsulfonyl-thiazole]: the EC50 with TFEB lay within 1 to 10 µM.

As for `CC(C)S(=O)(=O)c1nc(S(=O)(=O)n2nc(N3CCN(c4ncc(F)cn4)CC34CC4)c3c(F)ccc(F)c32)cs1` [Compound 195, 4-((4,7-difluoro-3-(7-(5-fluoropyrimidin-2-yl)-4,7-diazaspiro 12.51 octan-4-yl)-1H-indazol-1-yl)sulfonyl)-2-(isopropylsulfonyl) thiazole], the EC50 with TFEB fell in the range of 1 to 10 µM.

Regarding `CC(C)S(=O)(=O)c1nc(S(=O)(=O)n2nc(N3CCN(c4ncc(Cl)cc4F)CC34CC4)c3c(Cl)cccc32)cs1` [Compound 196, 4-((4-chloro-3-(7-(5-chloro-3-fluoropyridin-2-yl)-4,7-diazaspiro [2.5]octan-4-yl)-1H-indazol-1-yl)sulfonyl)-2-(isopropylsulfonyl) thiazole], the 50% effective concentration (EC50) with TFEB is ≤ 1 µM.

Turning to `CC(C)S(=O)(=O)c1nc(S(=O)(=O)n2nc(N3CCN(c4ncc(F)cc4F)CC34CC4)c3c(Cl)cc(F)cc32)cs1` [Compound 197, 4-[4-chloro-3-[7-(3,5-difluoro-2-pyridyl)-4,7-diazaspiro [2.5]octan-4-yl]-6-fluoro-indazol-1-yl]sulfonyl-2-isopropylsulfonyl-thiazole], in the experiment on TFEB, the EC50 lay in the range of 1 to 10 µM.

Consider `CC(C)S(=O)(=O)c1nc(S(=O)(=O)n2nc(N3CCN(c4ncc(F)cc4F)CC34CC4)c3c(F)cc(F)cc32)cs1` [Compound 198, 4-((3-(7-(3,5-difluoropyridin-2-yl)-4,7-diazaspiro [2.5]octan-4-yl)-4,6-difluoro-1H-indazol-1-yl)sulfonyl)-2-(isopropylsulfonyl) thiazole], for which, in the experiment with TFEB, the EC50 lay within 1 to 10 µM.

As to `CC(C)S(=O)(=O)n1ccc(S(=O)(=O)n2nc(N3CCN(c4ncc(F)cc4F)CC34CC4)c3c(Cl)cc(F)cc32)n1` [Compound 199, 4-chloro-3-[7-(3,5-difluoro-2-pyridyl)-4,7-diazaspiro [2.5]octan-4-yl]-6-fluoro-1-(1-isopropylsulfonylpyrazol-3-yl) sulfonyl-indazole], in the experiment with TFEB, the 50% effective concentration (EC50) was ≤ 1 µM.

On to `CC(C)S(=O)(=O)n1cnc(S(=O)(=O)n2nc(N3CCN(c4ncc(F)cc4F)CC34CC4)c3c(F)cc(F)cc32)n1` [Compound 200, 3-(7-(3,5-difluoropyridin-2-yl)-4,7-diazaspiro [2.5]octan-4-yl)-4,6-difluoro-1-((1-(isopropylsulfonyl)-1H−1,2,4-triazol-3-yl)sulfonyl)-1H-indazole], for which the EC50 with TFEB is ≥ 10 µM.

Consider `CC1CC(C)(C)N(C(=O)CN2C(=O)c3ccccc3C2=O)c2ccccc21` (centres unmarked) [ML-SA1], for which the “[Ca2+]cyt increases” value at ML1-4A was “significant [Ca2+]cyt increases”. Also, the “activation of whole-endolysosome IML1 compared with PI(3,5)P2” value in the experiment with TRPML1 (ML-SA1 10 μM, PI(3,5)P2 1 μM) is given as “comparable to the effect of the endogenous TRPML agonist PI(3,5)P2 (1 μM)”. Besides, the “activation of whole-cell IML1-4A and whole-endolysosome IML1” value in the experiment with TRPML1 is reported as “robustly activated”. Further, the “activation of whole-cell ITRPML2” value on TRPML2 is on record as “activated”. For the same compound, the “activation of whole-cell ITRPML3” value at TRPML3 is recorded as “activated”. For the same compound, the “activation of whole-endolysosome IML-L” value is reported as “activated” in experiment [1] and “not” in experiment [2]. In the experiment on TRPMLs, the “concentration needed to effectively activate TRPMLs” value is ~10 µM.
